Earlier results as cited in patent publication US6457474B1, “Method of treating chest pain” (priority 1997, dated 2002).

How the values were obtained:
[1] = after the tablet has dissolved under the tongue

In the case of `O=[N+]([O-])OCC(CO[N+](=O)[O-])O[N+](=O)[O-]` [nitroglycerin], the systemic bioavailability (after oral administration) is given as “rather low”, the plasma levels (high oral doses) is given as “erratic” and the “time for the angina attack to go away” value [1] is given as “approximately five”.
